Earlier results as cited in patent publication EP3731816B1, “SOLID ORAL PHARMACEUTICAL COMPOSITIONS COMPRISING APIXABAN” (Sanovel Ilac Sanayi ve Ticaret A.S., priority 2017, dated 2019).
≈ marks a conversion by molar mass, not a printed value.

Columns and labels:
[1] = single 10 mg dose
[2] = at 24 °C

oral bioavailability [1]: about 50% | solubility in water [2]: 0.028 mg/mL (≈ 60.9 µM)
SMILES: COc1ccc(-n2nc(C(N)=O)c3c2C(=O)N(c2ccc(N4CCCCC4=O)cc2)CC3)cc1 [Apixaban, 1-(4-methoxyphenyl)-7-oxo-6-[4-(2-oxopiperidin-1-yl)phenyl]-4,5,6,7-tetrahydro-1H-pyrazolo[3,4-c]pyridine-3-carboxamide]
